Laboratory results taken from patent US20250041286A1, “CANCER TREATMENT USING KETOTIFEN IN COMBINATION WITH A CHECKPOINT INHIBITOR” (Materia Therapeutics Inc., priority 2021, published 2025).

Columns and labels:
[1] = system: K7M2wt tumors; assay: Tumor growth (volume, mass) under daily ketotifen, osteosarcoma model; type: in vivo, mouse; conditions: daily ketotifen i.p. for 8 days
Description: Two mouse models of distinct sarcoma subtypes, fibrosarcoma (MCA205 cells) and osteosarcoma (K7M2wt cells), were used in this study.
MCA205, a mouse fibrosarcoma cell line (SCC173, Millipore), was cultured in RPMI-1640 expansion medium containing 2 mM L-glutamine, 1 mM sodium pyruvate, 10% fetal bovine serum, 1× non-essential amino acids (TMS-001-C, Sigma), 1% antibiotics (A5955, Sigma), and 1×β-mercaptoethanol. K7M2wt, a mouse osteosarcoma cell line (CRL2836™, ATCC®), was cultured in DMEM expansion medium supplemented with 10% FBS and 1% antibiotics. All cells were maintained at 37° C./5% CO2.
A fibrosarcoma syngeneic tumor model was generated by subcutaneous implantation of 2.5×10^5 MCA205 cells in 50 μL of serum-free medium into the flank of 6-week old C57BL/6 female mice. A osteosarcoma syngeneic tumor model was generated by implanting K7M2wt tumor chunks into the fat pad of 6-week old BALB/c female mice. […]
Each treatment group of 4-7 mice received subtherapeutic doses of ketotifen (1, 5, 10 and 25 mg/kg) for a period of 8 days. […] Planar dimensions (x, y) of tumor were monitored every 2-3 days using a digital caliper and tumor volume was estimated from the volume of an ellipsoid and assuming that the third dimension, z, is equal to sqrt(x y).

[2] = system: CD117 protein; assay: Western blot against CD117 protein (mast cell number) in tumors; type: in vivo, mouse; conditions: subtherapeutic doses of ketotifen
[3] = system: K7M2wt tumors; assay: Atomic force microscopy (AFM) elastic modulus of tumor samples ex vivo; type: in vivo, mouse; conditions: ketotifen-treated K7M2wt tumors, microscopic scale
Description: Following the confirmation of the presence of MCs in human sarcoma samples and the in vitro characterization of the MC-fibroblast interaction, it was assessed whether inhibition of MC degranulation would reduce fibrosis in murine sarcoma models. The impact of MC degranulation by treating MCA205 fibrosarcoma and K7M2wt osteosarcoma tumors with ketotifen was assessed. Ketotifen was administered in four different doses (1, 5, 10, and 25 mg/kg), once a day by i.p. injection for a period of 8 days (as shown in FIG. 4A). […] The effect of ketotifen on tumor stiffness in vivo was monitored using shear wave elastography (SWE). SWE measurements were performed before, after 3 days (for MCA205) or 4 days (for K7M2wt) of ketotifen treatment and upon study completion. […] The pertinent reduction in tumor stiffness was further validated ex vivo at the microscopic tissue scale using atomic force microscopy (AFM) of tumor samples. […] In FIG. 19B, the left peak of lower elastic modulus corresponds to compliant cancer cells, while the tail of higher elastic modulus (dashed rectangles) represents the contribution of the stiffer matrix components, mainly collagen. Data are presented as mean±SE. Statistical analyses were performed by comparing means between two independent groups using the ordinary one-way ANOVA test.

[4] = system: K7M2wt tumors; assay: Hyaluronan evaluation, HABP1 immunofluorescence; type: in vivo, mouse; conditions: daily ketotifen 10 mg/kg
Description: (§1) Besides collagen, other structural components of tumor stroma can exert pressure and deform vessels. Such an example is the hyaluronan (e.g., hyaluronic acid), which binds to and retains excessive fluid generating gel-like regions within the tissue. Therefore, hyaluronic acid staining was performed in both sarcoma mouse models.
(§2) Tumors were removed from mice, washed twice in 1×PBS for 10 min, and incubated with 4% PFA overnight at 4° C. The fixative was aspirated, and samples were washed twice in 1×PBS for 10 min. Tissue samples were dehydrated in successive ethanol steps and xylene followed by paraffin embedding. Serial sections ([…]) of paraffin-embedded tissues were produced using the microtome (Accu-Cut SRM 200 Rotary Microtome, SAKURA), flattened out into water, and allowed to dry overnight at 37° C. Sections were then deparaffinized and rehydrated as routinely processed for histology. Tissue sections were subjected to antigen retrieval (microwave heat treatment with TriSodium Citrate, pH 6, for 20 min), washed with 1×TBS/0.025% Triton X-100 (TBS-T), and incubated in blocking solution (2% BSA, 0.2% Triton 100×) for 2 hours at room temperature. […] Hyaluronan was detected following incubation with streptavidin-FITC conjugate (Invitrogen, 1:1000) and nuclei were stained with DAPI stain at room temperature for 1 hour in the dark. […]

[5] = system: MCA205 tumors; assay: Hyaluronan evaluation, HABP1 immunofluorescence; type: in vivo, mouse; conditions: daily ketotifen 10 mg/kg
Description: as §1, §2

[6] = system: NIH3T3 cells; assay: NIH3T3 cell viability assessment; type: cell-based, murine; conditions: ketotifen or control for 2 or 24 hours
[7] = system: MCA205 tumors; assay: Vessel normalization, NG2/CD31 pericyte coverage and open lumen fraction; type: in vivo, mouse
Description: To assess whether MC inhibition could normalize the structure of tumor blood vessels, which can further improve perfusion, the effect of ketotifen on vascular permeability was assessed. […] Instead, an upregulation of IFN-γ transcription levels in MCA205 tumors following 10 mg/kg ketotifen treatment was observed (FIG. 1D). IFNγ is an angiostatic protein whose concentration in the TME has been related to vessel normalization and reduced vessel leakiness.

SMILES: CN1CCC(=C2c3ccccc3CC(=O)c3sccc32)CC1 [ketotifen]
- antitumor effect (tumor volume and mass) [1]: No subtherepautic dose of ketotifen exhibited an antitumor effect
- mast cell (MC) number as determined by CD117 protein levels [2]: remain unaffected
- average value of elastic modulus by AFM [3]: reduction
- expression of hyaluronan protein (HABP1 staining) [4]: reduced
- expression of hyaluronan protein (HABP1 staining) [5]: reduced
- NIH3T3 cell viability [6]: did not significantly reduce
- fraction of vessels with open lumen ([7]; MCA205 tumors, CD31 image analysis): increase the fraction of vessels with open lumen
- pericyte coverage of the tumor vasculature (NG2/CD31 colocalization) ([7]; ketotifen 5, 10 and 25 mg/kg compared to the lowest dose and untreated control): increase
